Three molecules from patent US12414958B2, “Medicament and use thereof for treating bacterial infections involving biofilm” (Debiopharm International S.A., priority 2019, dated 2025) can be followed below.

The assay relates to ATCC 43300 MRSA strain. Description: In vivo murine model of catheter associated infection, 24 h and 72 h MRSA biofilms. Also on record: species or system Staphylococcus aureus. To be noted: for mean reduction of the initial MRSA load / CR (%) cure rate: 5.5-day treatment; for mean reduction of the initial MRSA load: given as positive reduction; for Log10 CFU/g of catheter (D 6) Mean ± SEM / ΔLog10 CFU/g of catheter from (D 1) Mean ± SEM: 5.5-day treatment (D1-D6); for Log10 CFU/g of catheter (D 6) Mean ± SEM / ΔLog10 CFU/g of catheter from (D 1) Mean ± SEM / Log10 CFU/g of catheter (D 8) Mean ± SEM / ΔLog10 CFU/g of catheter from (D 3) Mean ± SEM: BALB/c mice; for Log10 CFU/g of catheter (D 6) Mean ± SEM / Log10 CFU/g of catheter (D 8) Mean ± SEM: doses as in Table 2; for ΔLog10 CFU/g of catheter from (D 1) Mean ± SEM: change from baseline D 1; for CR (%) cure rate: percentage of mice without catheter-associated bacteria; for Log10 CFU/g of catheter (D 8) Mean ± SEM / ΔLog10 CFU/g of catheter from (D 3) Mean ± SEM: 5.5-day treatment (D3-D8); for ΔLog10 CFU/g of catheter from (D 3) Mean ± SEM: change from baseline D 3. On the procedure: Two experimental settings were used in this study to evaluate the treatment efficacies against early (24h) and/or mature (72h) MRSA catheter formed biofilms. Briefly, mice were anaesthetised by an IP injection of about 120 μl a mix of ketamine (50 mg/kg) and xylazine (10 mg/kg) (4 mL ketamine+2 mL xylazine+10 mL saline). Flank on the right side was shaved and then disinfected by 3 consecutive applications of betadine. A cutaneous and then subcutaneous (SC) incisions of 0.2 cm were made under sterile conditions and a 1 cm segment of polyurethane catheter (Ref. No. ES-04730 Arrow international) cut into 2 longitudinal fragments was inserted SC (into the incision and then pushed further under the skin, about 2 cm away from the incision). The inoculation was done simultaneously by placing 50 μl of the bacterial culture onto the catheter (10^6 CFU of ATCC 43300 MRSA strain). The incision was stitched up and disinfected. The day of the infection was referred to as Day0 (D0). To ensure that the study was conducted in sterile conditions from the start to the end of the experiment, non-infected mice (sentinel group) were included. Treatments started either on D1 or D3 post infection, corresponding to early (24h) or more mature (72h) catheter formed biofilms, respectively, and lasted for 5.5 days (D1-D6) or (D3-D8). In both 24 h and 72h biofilm settings, two groups of infected non-treated animals (Vehicle controls) were evaluated for bacterial counts: at baseline (24h or D1 [for 24-h biofilm] and 72h or D3 [for 72-h biofilm] post infection, i.e. time points corresponding to treatments initiations) and at the termination of treatment duration (D6 [for 24-h biofilm] and D8 [for 72-h biofilm] post infection). Post treatment CFUs were counted on D6 or D8 and results were expressed as Log10 CFU/g of catheter (Mean±SEM). The limit of detection was determined as being 1 Log10 CFU/g of catheter. Changes of CFU/g of catheter (Δ Log10) from the baseline (D1 or D3 for 24-h and 72-h biofilm, respectively) and cure rates (corresponding to the percentage of mice without catheter-associated bacteria within a given treatment group) were also calculated. In vivo induction of antibiotic-resistant bacteria was analysed for all tested antibiotics.
Antibiotics doses were selected according to the effective doses in animals, which approximated the therapeutic human equivalent doses (HED) (Table 1).
Mice received antibiotics on D1, D2, D3, D4, D5 and D6 (only one administration at D6) or D3, D4, D5, D6, D7 and D8 (only one administration at D8). All antibiotics were administered BID IP, except Debio 1450 BES and Vancomycin, which were respectively given PO and SC. Daptomycin was tested as a once daily regimen to avoid tolerability issues. The antibiotics daily dosing was performed with a 10-12 hours interval between the two administrations. For combination therapy, antibiotics were administered simultaneously every 10-12 hours (the time required between the injection of the first antibiotic and the injection of the second antibiotic was less than 30 seconds per mouse).
In each sub-study, animals were randomly assigned to the antibiotic therapies or vehicle controls groups. Dose volumes were calculated according to individual body weight of each animal.
After blood collection, animals were sacrificed by cervical dislocation following anaesthesia. Two fragments of catheter per mouse were collected and were used for bacterial enumeration after sonication. Each fragment of catheter was individually washed under aseptic conditions in an Eppendorf tube (3 successive washing steps with 300 μl sterile saline). After the last wash, the catheter was suspended in 1 mL sterile saline, put in an ultrasonic bath (Advantage Lab) for 3 minutes at room temperature before being vigorously vortexed in order to detach all adherent bacteria from the catheter. Several successive dilutions of this suspension (undiluted, 10-2, […]) were cultured onto Chapman agar plates for 48 h at 37° C. […]

As for `CO[C@H]1/C=C/O[C@@]2(C)Oc3c(C)c(O)c4c(O)c(c(/C=N/N5CCN(C)CC5)c(O)c4c3C2=O)NC(=O)/C(C)=C\C=C\[C@H](C)[C@H](O)[C@@H](C)[C@@H](O)[C@@H](C)[C@H](OC(C)=O)[C@@H]1C` [Rifampicin], where the note is “24 h biofilm”, the “mean reduction of the initial MRSA load” value is recorded as 4.17±0.072 Log10 CFU/g of catheter. The “mean reduction of the initial MRSA load” value (72 h biofilm) is 2.98±0.113 Log10 CFU/g of catheter. Besides, where the note is “Biofilm (24 h)”, the “Log10 CFU/g of catheter (D 6) Mean ± SEM” value is 2.50 ± 0.072 Log10 CFU/g of catheter, the “ΔLog10 CFU/g of catheter from (D 1) Mean ± SEM” value (“ΔLog10 CFU/g … (D 1) Mean ± SEM” for short) is −4.17 ± 0.072 Log10 CFU/g of catheter and the “CR (%) cure rate” value is recorded as 39%. In addition, where the note is “Biofilm (72 h)”, the “Log10 CFU/g of catheter (D 8) Mean ± SEM” value is given as 3.80 ± 0.113 Log10 CFU/g of catheter, the “ΔLog10 CFU/g of catheter from (D 3) Mean ± SEM” value (from here on “ΔLog10 CFU/g … (D 3) Mean ± SEM”) is −2.98 ± 0.113 Log10 CFU/g of catheter and the “CR (%) cure rate” value was 8%.

Regarding `CCCCCCCCCC(=O)N[C@@H](Cc1c[nH]c2ccccc12)C(=O)N[C@H](CC(N)=O)C(=O)N[C@@H](CC(=O)O)C(=O)N[C@@H]1C(=O)NCC(=O)N[C@@H](CCCN)C(=O)N[C@@H](CC(=O)O)C(=O)N[C@H](C)C(=O)N[C@@H](CC(=O)O)C(=O)NCC(=O)N[C@H](CO)C(=O)N[C@@H]([C@H](C)CC(=O)O)C(=O)N[C@@H](CC(=O)c2ccccc2N)C(=O)O[C@@H]1C` [Daptomycin], under “Biofilm (24 h)”, the “Log10 CFU/g of catheter (D 6) Mean ± SEM” value was 3.02 ± 0.110 Log10 CFU/g of catheter, the “ΔLog10 CFU/g … (D 1) Mean ± SEM” value is −3.64 ± 0.110 Log10 CFU/g of catheter and the “CR (%) cure rate” value amounted to 25%. Further, where the note is “Biofilm (72 h)”, the “Log10 CFU/g of catheter (D 8) Mean ± SEM” value is given as 5.42 ± 0.104 Log10 CFU/g of catheter, the “ΔLog10 CFU/g … (D 3) Mean ± SEM” value is given as −1.37 ± 0.104 Log10 CFU/g of catheter and the “CR (%) cure rate” value was determined as 0%.

As for `Cc1c(CN(C)C(=O)/C=C/c2cnc3c(c2)CCC(=O)N3COP(=O)(O)O)oc2ccccc12` [Debio 1450, {6-[(1E)-3-{methyl [(3-methyl-1-benzofuran-2-yl)methyl]amino}-3-oxoprop-1-en-1-yl]-2-oxo-3,4-dihydro-1,8-naphthyridin-1 (2H)-yl} methyl dihydrogen phosphate], for the setting “Biofilm (24 h)”, the “Log10 CFU/g of catheter (D 6) Mean ± SEM” value is reported as 4.31 ± 0.109 Log10 CFU/g of catheter, the “ΔLog10 CFU/g … (D 1) Mean ± SEM” value is reported as −2.35 ± 0.109 Log10 CFU/g of catheter and the “CR (%) cure rate” value amounted to 8%. Under “Biofilm (72 h)”, the “Log10 CFU/g of catheter (D 8) Mean ± SEM” value is reported as 5.75 ± 0.069 Log10 CFU/g of catheter, the “ΔLog10 CFU/g … (D 3) Mean ± SEM” value is −1.03 ± 0.069 Log10 CFU/g of catheter and the “CR (%) cure rate” value came out at 0%.
